Laboratory results as given in patent publication US8106062B1, “Calcium channel blockers” (Diakron Pharmaceuticals, Inc., priority 2003, dated 2012).

Columns and labels:
[1] = target: T1, T-type calcium channels (α1G) (Homo sapiens, UniProt O43497); assay: Patch-clamp assay for T-channel blockage in HEK cells; assay type: cell-based; details: time course of T-channel blockage, 500 nM and 1 uM, preliminary numbers
T1 construct: expressed in transfected cells
Experimental: Specifically, individual HEK cells were tested in vitro using a patch-clamp assay for T-channel blockage. Tests were performed at concentrations of 500 nM and 1 uM, and the time course of the blockage was followed for a period of several minutes.
In the past, patch clamp assays for T-channel activity would measure inhibition of calcium-ion-mediated current over the course of only a few minutes, e.g., 2, 3, or 5 minutes. […] The assays described herein can be used to differentiate between conventional-type T-channel blockers, which usually show a time constant of blockage of a few seconds, and the long-acting T-channel blockers, which show time constants between 1 minute and 2, 4, 5, 10 or more minutes. It is the latter group of compounds that is particularly interesting and useful in the present invention.
T-type calcium channels (α1G) were stably expressed in HEK293 cells and maintained at 37° C. in DMEM. Cells were released from dishes using trypsin and EGTA or Accutase and studied within 4 hours of isolation. Individual cells were placed on the stage of an inverted microscope and patched with pipettes pulled from aluminasilicate glass capillary tubes, which had resistances of 0.8-1.5 Mohm. Currents were recorded using an Axopatch 200 (Axon Instruments, Inc.) and pClamp data acquisition software (8.1). The pipette solution contained (in mM): KCl 130, EGTA 11, HEPES 10, MgATP 5, pH=7.4. The bath solution contained (in mM): NaCl 140, CaCl2 1, HEPES 10, pH=7.4. Test compounds were diluted into bath solution to the desired concentration (100 nM-10 μM) from a stock solutions (3 or 10 mM in DMSO). Current measurements were made at 20-23° C. Cells were held at −110 mV in order to maximize occupancy in the closed state and depolarized for 100 ms to various potentials. Currents were capacity corrected using 16-64 subthreshold responses (voltage steps of 10 or 20 mV) and leak subtracted, based on linear interpolation between the current at the holding potential and 0 mV. Cells were moved from a control chamber to a chamber with test compound and the effect of the drug was assessed using a voltage clamp protocol that stepped to −30 mV for 100 ms from a holding potential of −110 mV once every 5 s. After each 10-13 minutes, the train protocol was interrupted and a full current voltage relationship obtained. In general for each compound, four cells were studied for a minimum of 13 minutes, two in drug at 500 nM and two at 1 μM. In some cases other concentrations were also studied. Data were analyzed using Matlab (Mathworks, Natick, Mass.). Drug efficacy was estimated using the relationship: Blocked Fraction=[Drug]/(IC50+[Drug])
The time course of block by drug was fit to a single exponential function: Peak Current=A*exp(−t/τ)+B where A is the initial amplitude of the current, B the final level, t the time after the cell was exposed to drug, and τ, the time constant, i.e. the time it took for the current to be reduced to within 1/e of its final value, B. In general, modification τs are influenced both by drug on rate and off rate, although washout was achievable for only one compound, so off rates are so slow (small) that T can be taken to essentially represent 1/kon. For some compounds despite the presence of the drug in the chamber, modification occurred with a delay. This was quantified from the time modification was first observed. […]

[2] = tested on: spontaneously hypertensive rats; details: 30 mg/Kg oral, cited from earlier work
[3] = tested on: spontaneously hypertensive rats; assay: Systolic blood pressure (tail cuff) in spontaneously hypertensive rats after IV tail injection; assay type: in vivo, rat; details: SHR
Experimental: In addition to the referenced in vitro studies, in vivo studies have also been conducted. The in vivo hypertension model used here involves administration of compound to spontaneously hypertensive rats through IV tail injection of compound. Systolic blood pressure is then measured using a tail cuff.
Fifteen male spontaneously hypertensive rats (SHR) were used in these studies. The animals were 12 weeks old at arrival and 15 weeks old at the start of study. The animals were divided into five groups, with three animals in each group. The starting, baseline systolic blood pressure for all animals included in the study was 190-220 mmHg. The animals were housed in contact bedding. They were fed Purina 5008. Six days after arrival, the animals were trained in the blood pressure apparatus for four days before the start of the study.
Compounds were administered to the animals by tail vein injection. Dose levels were 0.5 mL. In each study, one group of animals served as control, while the others were injected with a dosage of a compound.
The study was conducted using the schedule set forth below: […]

[4] = multiple dose study, three injections spaced about 25 hours apart, FIG. 2
[5] = single dose 20 mg/Kg, IV tail injection, FIG. 1

T1 sequence (O43497 whole entry): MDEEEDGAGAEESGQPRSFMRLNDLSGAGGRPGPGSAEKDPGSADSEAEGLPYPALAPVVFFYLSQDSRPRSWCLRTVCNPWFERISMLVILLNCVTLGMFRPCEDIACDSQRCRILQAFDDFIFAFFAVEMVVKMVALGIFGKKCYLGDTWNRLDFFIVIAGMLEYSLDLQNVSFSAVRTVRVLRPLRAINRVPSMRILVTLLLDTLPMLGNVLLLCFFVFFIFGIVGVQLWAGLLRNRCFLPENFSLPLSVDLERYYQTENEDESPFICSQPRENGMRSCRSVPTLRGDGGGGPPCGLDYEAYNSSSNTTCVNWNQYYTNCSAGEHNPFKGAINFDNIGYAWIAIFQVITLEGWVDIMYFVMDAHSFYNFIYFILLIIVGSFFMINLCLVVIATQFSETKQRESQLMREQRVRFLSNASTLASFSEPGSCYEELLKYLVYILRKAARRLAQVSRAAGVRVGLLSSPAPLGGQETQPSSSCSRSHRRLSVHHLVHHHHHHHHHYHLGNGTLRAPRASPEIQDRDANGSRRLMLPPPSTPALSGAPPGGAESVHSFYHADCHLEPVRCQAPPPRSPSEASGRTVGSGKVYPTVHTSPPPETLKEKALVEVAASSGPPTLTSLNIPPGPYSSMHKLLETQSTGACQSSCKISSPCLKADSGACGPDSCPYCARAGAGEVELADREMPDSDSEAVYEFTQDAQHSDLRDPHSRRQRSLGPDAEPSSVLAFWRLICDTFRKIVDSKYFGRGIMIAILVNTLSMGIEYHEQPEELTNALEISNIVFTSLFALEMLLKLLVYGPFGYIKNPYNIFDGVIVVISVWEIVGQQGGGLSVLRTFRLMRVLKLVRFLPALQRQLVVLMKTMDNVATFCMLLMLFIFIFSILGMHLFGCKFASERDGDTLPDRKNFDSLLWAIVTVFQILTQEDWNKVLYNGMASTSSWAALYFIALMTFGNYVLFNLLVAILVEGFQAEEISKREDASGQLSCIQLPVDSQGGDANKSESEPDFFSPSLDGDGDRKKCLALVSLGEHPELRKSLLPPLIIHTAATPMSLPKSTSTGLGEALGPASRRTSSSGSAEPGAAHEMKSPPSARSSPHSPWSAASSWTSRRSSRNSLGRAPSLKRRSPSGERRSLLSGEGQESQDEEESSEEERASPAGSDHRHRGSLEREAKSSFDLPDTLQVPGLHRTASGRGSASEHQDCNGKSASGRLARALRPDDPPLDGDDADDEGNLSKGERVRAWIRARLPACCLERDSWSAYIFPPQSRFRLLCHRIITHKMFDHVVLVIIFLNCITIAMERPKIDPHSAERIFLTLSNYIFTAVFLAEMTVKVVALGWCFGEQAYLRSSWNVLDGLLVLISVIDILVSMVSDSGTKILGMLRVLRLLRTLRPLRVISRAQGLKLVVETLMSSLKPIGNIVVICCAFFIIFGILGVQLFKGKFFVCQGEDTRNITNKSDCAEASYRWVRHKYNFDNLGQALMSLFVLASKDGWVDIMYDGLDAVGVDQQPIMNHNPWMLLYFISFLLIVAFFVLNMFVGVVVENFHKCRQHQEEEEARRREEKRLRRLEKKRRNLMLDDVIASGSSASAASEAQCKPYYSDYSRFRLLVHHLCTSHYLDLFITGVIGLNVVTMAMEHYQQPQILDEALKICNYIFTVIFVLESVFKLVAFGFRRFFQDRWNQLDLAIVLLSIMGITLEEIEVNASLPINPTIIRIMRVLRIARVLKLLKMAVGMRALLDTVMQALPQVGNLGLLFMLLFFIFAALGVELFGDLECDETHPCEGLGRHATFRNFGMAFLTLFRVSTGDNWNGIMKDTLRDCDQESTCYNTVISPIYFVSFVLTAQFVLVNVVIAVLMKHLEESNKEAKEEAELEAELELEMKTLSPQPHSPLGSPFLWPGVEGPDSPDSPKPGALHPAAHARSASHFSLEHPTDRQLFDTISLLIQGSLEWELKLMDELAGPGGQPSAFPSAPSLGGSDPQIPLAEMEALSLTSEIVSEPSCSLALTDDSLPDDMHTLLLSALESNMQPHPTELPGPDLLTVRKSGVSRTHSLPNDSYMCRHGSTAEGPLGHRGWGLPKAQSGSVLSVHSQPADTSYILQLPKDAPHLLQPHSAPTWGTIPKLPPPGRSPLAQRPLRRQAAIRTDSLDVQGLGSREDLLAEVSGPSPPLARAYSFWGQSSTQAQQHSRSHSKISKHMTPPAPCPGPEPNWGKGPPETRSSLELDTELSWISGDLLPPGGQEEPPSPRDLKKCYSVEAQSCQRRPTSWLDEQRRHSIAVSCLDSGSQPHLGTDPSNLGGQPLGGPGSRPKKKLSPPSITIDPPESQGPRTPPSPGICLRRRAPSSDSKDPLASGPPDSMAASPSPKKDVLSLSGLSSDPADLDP

## 3,6-dihydro-4-methyl-6-[2-ethoxy-6-pentadecylphenyl]-2-oxo-1,5-(2H)-pyrimidinedicarboxylic acid 1-ethyl 5-isopropyl diester [PPK35]
[1]
  Time constant: 10 min

## COCC(=O)O[C@]1(CCN(C)CCCc2nc3ccccc3[nH]2)CCc2cc(F)ccc2[C@@H]1C(C)C [Mibefradil]
[2]; FIG. 1
  systolic blood pressure drop in the first 5 hours: about 85 mmHg
  systolic blood pressure recovery by the end of 24 hours: about 45 mmHg
[2]; FIG. 2
  rapid drop of blood pressure: 85 mmHg
  recovery of blood pressure within 24 hours of administration: more than 50%

## CCCCCCCCCCCCCCCc1cccc(OC(C)C)c1C1C(C(=O)OC)=C(C)NC(C)=C1C(=O)OC [PPK5, dimethyl 1,4-dihydro-4-(2′-isopropoxy-6′-pentadecylphenyl)-2,6-dimethyl-3,5-pyridine dicarboxylate]
[1]
  Time constant: 8 min
[3]; [4]
  additional blood pressure drop after the second injection: ~12 mmHg
  blood pressure drop after first injection: about 55 mmHg
[3]; single dose 20 mg/Kg, IV tail injection
  time systolic pressure remained at the reduced level: > 24 h
[3]; [5]
  systolic pressure drop in the first 5 hours: about 48 mmHg
  systolic pressure drop in the first 10 hours: about 55 mmHg

## CCCCCCCCCCCCCCCc1cccc(OC)c1C1NC(=O)NC(C)=C1C(=O)OCC (centres unmarked) [PPK22, 5-ethoxycarbonyl-4-(2-methoxy-6-pentadecylphenyl)-6-methyl-3,4-dihydropyrimidin-2(1H)-one]
[1]
  Time constant: 1 min

## CCCCCCCCCCCCCCCc1cccc(OCC)c1C1C(C(=O)OCC)=C(C)NC(=S)N1C(=O)CC (centres unmarked) [PPK50, 1,2,3,4-tetrahydro-6-methyl-4-[2-ethoxy-6-pentadecylphenyl]-3-(1-oxo-propyl)2-thioxo-5-pyrimidine carboxylic acid ethyl ester]
[1]
  Time constant: 10 min

## CCCCCCCCCCCCCCCc1cccc(OC(C)C)c1C1C(C(=O)OCC)=C(C)NC(=S)N1C(=O)CC (centres unmarked) [PPK51, 1,2,3,4-tetrahydro-6-methyl-4-[2-isopropoxy-6-pentadecylphenyl]-3-(1-oxo-propyl)2-thioxo-5-pyrimidine carboxylic acid ethyl ester]
[1]
  Time constant: 13 min
